Experimental findings from patent US6566373B2, “Protease inhibitors” (SmithKline Beecham Corporation, priority 1997, dated 2003) are described below.

Data set [1] deals with T1, cathepsin K (Homo sapiens, UniProt P43235).
T1 sequence (P43235 115-329): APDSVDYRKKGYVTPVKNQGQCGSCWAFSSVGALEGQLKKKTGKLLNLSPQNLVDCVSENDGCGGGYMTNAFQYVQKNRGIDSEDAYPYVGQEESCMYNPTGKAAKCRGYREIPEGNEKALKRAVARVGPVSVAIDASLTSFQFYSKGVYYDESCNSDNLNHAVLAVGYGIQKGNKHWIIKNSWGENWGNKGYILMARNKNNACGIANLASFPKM
Kind of data set: Cathepsin K inhibition (progress curve method, fluorogenic substrate Cbz-Phe-Arg-AMC). The class given is biochemical. The settings on record: human recombinant enzyme, 100 mM Na acetate pH 5.5. As for the experimental part: Determination of Cathepsin K Proteolytic Catalytic Activity
All assays for cathepsin K were carried out with human recombinant enzyme. Standard assay conditions for the determination of kinetic constants used a fluorogenic peptide substrate, typically Cbz-Phe-Arg-AMC, and were determined in 100 mM Na acetate at pH 5.5 containing 20 mM cysteine and 5 mM EDTA. Stock substrate solutions were prepared at concentrations of 10 or 20 mM in DMSO with 20 μM final substrate concentration in the assays. All assays contained 10% DMSO. […] All assays were conducted at ambient temperature. Product fluorescence (excitation at 360 nm; emission at 460 nm) was monitored with a Perceptive Biosystems Cytofluor II fluorescent plate reader. […]
Potential inhibitors were evaluated using the progress curve method. […] For those compounds whose progress curves were linear, apparent inhibition constants (Ki,app) were calculated according to equation 1 (Brandt et al., Biochemitsry, 1989, 28, 140): […]
[AMC]=vSSt+(v0−vSS)[1−exp (−kobst)]/kobs (2) where [AMC] is the concentration of product formed over time t, v0 is the initial reaction velocity, and vSS is the final steady state rate. Values for kobs were then analyzed as a linear function of inhibitor concentration to generate an apparent second order rate constant (kobs/inhibitor concentration or kobs/[I]) describing the time-dependent inhibition. […]

Each structure is given as a SMILES string. Where a name gives a salt, the structure may show the parent alone. Where only a bound is given, the exact number is not on record here.

On to `CC(C)C[C@H](NS(=O)(=O)c1cccc2cccnc12)C(=O)NC1COCC1=O` (mixture of isomers) [Example 7, 4-(R,S)-Amino-N-[(8-quinolinesulfonyl)-S-leucine]-tetrahydrofuran-3-one], for which the Ki in data set [1] is > 10 µM. In turn, `CC(C)C[C@H](NS(=O)(=O)c1cccc2cccnc12)C(=O)NC1COCC1=O` (mixture of isomers) (as salt: HCl) [Example 7, 4-(R,S)-Amino-N-[(8-quinolinesulfonyl)-S-leucine]-tetrahydrofuran-3-one] returned a melting point of 98 °C.
